Laboratory results reported in ChEMBL document CHEMBL1124186, “Synthesis and evaluation of tylosin-related macrolides modified at the aldehyde function: a new series of orally effective antibiotics” (1988).
In brackets after ≈: the same amount, converted by molar mass.

Experiments:
Streptococcus pyogenes [1] = assay: In vivo effective dose against experimental infections in rodent caused by Streptococcus pyogenes C203 when administered sc; assay type: functional
[2] = test system: Prevotella melaninogenica; assay: In vitro antimicrobial activity against anaerobic bacteria bacteroides melaninogenicus 2736; assay type: functional
Phocaeicola vulgatus = assay: In vitro antimicrobial activity against anaerobic bacteria bacteroides vulgatus 1211; assay type: functional
Bacteroides fragilis [3] = assay: In vitro antimicrobial activity against anaerobic bacteria bacteroides fragilis 1936B,; assay type: functional
Fusobacterium = assay: In vitro antimicrobial activity against anaerobic bacteria fusobacterium symbiosum 1470; assay type: functional
Anaerococcus prevotii = assay: In vitro antimicrobial activity against anaerobic bacteria peptococcus prevoti 1281; assay type: functional
[4] = test system: Peptoniphilus asaccharolyticus; assay: In vitro antimicrobial activity against anaerobic bacteria peptococcus asaccharolyticus 1302; assay type: functional
Bacteroides fragilis [5] = assay: In vitro antimicrobial activity against anaerobic bacteria bacteroides fragilis 1877; assay type: functional
[6] = test system: Fusobacterium necrophorum; assay: In vitro antimicrobial activity against anaerobic bacteria usobacterium necrophorum 6054A; assay type: functional
Eikenella corrodens = assay: In vitro antimicrobial activity against anaerobic bacteria bacteroides corrodens 1874; assay type: functional
Clostridium perfringens = assay: In vitro antimicrobial activity against anaerobic bacteria clostridium perfringens 81,; assay type: functional
Clostridioides difficile = assay: In vitro antimicrobial activity against anaerobic bacteria Clostridium difficile 2994; assay type: functional
Collinsella aerofaciens = assay: In vitro antimicrobial activity against anaerobic bacteria aerofaciens 1235; assay type: functional
Streptococcus pneumoniae = assay: In vitro antimicrobial activity against Streptococcus pneumoniae; assay type: functional
Bacteroides fragilis [7] = assay: In vitro antimicrobial activity against anaerobic bacteria bacteroides fragilis 111; assay type: functional
Streptococcus pyogenes [8] = assay: In vitro antimicrobial activity against Streptococcus pyogenes C203; assay type: functional
Enterococcus faecium = assay: In vitro antimicrobial activity against Streptococcus faecium X66; assay type: functional, streptococcus fae-cium
Chlamydia trachomatis = assay: In vitro antimicrobial activity against chlamydia trachomatis.; assay type: functional
[9] = test system: Peptostreptococcus anaerobius; assay: In vitro antimicrobial activity against anaerobic bacteria eubacterium peptostreptococcus anaerobius 1428,; assay type: functional
[10] = In vitro antimicrobial activity against anaerobic bacteria peptostreptococcus intermedius 1264; assay type: functional
[11] = test system: Bacteroides thetaiotaomicron; assay: In vitro antimicrobial activity against anaerobic bacteria bacteroides thetaiotaomicron 1438; assay type: functional
Haemophilus influenzae = assay: In vitro antimicrobial activity against Haemophilus influenzae.; assay type: functional
Cutibacterium acnes = assay: In vitro antimicrobial activity against anaerobic bacteria propionibacterium acnes 79; assay type: functional
Staphylococcus aureus = assay: In vitro antimicrobial activity against Staphylococcus aureus X1; assay type: functional
[12] = test system: Staphylococcus epidermidis; assay: In vitro antimicrobial activity against Staphylococcus epidermidis EPI1; assay type: functional
Streptococcus pyogenes [13] = assay: In vivo effective dose against experimental infections in rodent caused by Streptococcus pyogenes C203 when administered orally; assay type: functional; details: po
[14] = test system: Prevotella melaninogenica; assay: In vitro antimicrobial activity against anaerobic bacteria bacteroides melaninogenicus 1856,; assay type: functional

Compound CC[C@H]1OC(=O)C[C@@H](O)[C@H](C)[C@@H](O[C@@H]2O[C@H](C)[C@@H](O)[C@H](N(C)C)[C@H]2O)[C@@H](CCO)C[C@@H](C)C(=O)/C=C/C(C)=C/[C@@H]1CO has an ED50 (Streptococcus pyogenes [1]) greater than 10 mg/kg, an MIC [2] greater than 8 µg/mL and an MIC (Phocaeicola vulgatus) greater than 8 µg/mL. For the same compound, the MIC (Bacteroides fragilis [3]) was greater than 8 µg/mL, the MIC (Fusobacterium) was greater than 8 µg/mL and the MIC (Anaerococcus prevotii) was greater than 8 µg/mL. The MIC [4] was greater than 8 µg/mL, the MIC (Bacteroides fragilis [5]) was greater than 8 µg/mL and the MIC [6] was 4 µg/mL (≈ 6.67 µM). For the same compound, the MIC (Eikenella corrodens) was greater than 8 µg/mL, the MIC (Clostridium perfringens) was 4 µg/mL (≈ 6.67 µM) and the MIC (Clostridioides difficile) was 4 µg/mL (≈ 6.67 µM). It also gave an MIC (Collinsella aerofaciens) of 8 µg/mL (≈ 13.3 µM), an MIC (Streptococcus pneumoniae) of 64 µg/mL (≈ 107 µM) and an MIC (Bacteroides fragilis [7]) greater than 8 µg/mL. It also gave an MIC (Streptococcus pyogenes [8]) of 16 µg/mL (≈ 26.7 µM), an MIC (Enterococcus faecium) of 64 µg/mL (≈ 107 µM) and an MIC (Chlamydia trachomatis) greater than 1 µg/mL. The MIC [9] was greater than 8 µg/mL, the MIC [10] was greater than 8 µg/mL and the MIC [11] was greater than 8 µg/mL. It also gave an MIC (Haemophilus influenzae) of 32 µg/mL (≈ 53.4 µM), an MIC (Cutibacterium acnes) of 4 µg/mL (≈ 6.67 µM) and an MIC (Staphylococcus aureus) of 64 µg/mL (≈ 107 µM). For the same compound, the MIC [12] was 32 µg/mL (≈ 53.4 µM), the ED50 (Streptococcus pyogenes [13]) was greater than 100 mg/kg and the MIC [14] was greater than 8 µg/mL.
